# Source: ChEMBL document CHEMBL1159090 (Bioorg Med Chem Lett, 2010)
# pKi: −log10 of the molar value.
# Target: Histamine H1 receptor (Homo sapiens, UniProt P35367)
# Assay: Displacement of [3H]Pyrilamine from human cloned histamine H1 receptor
# Chain of Histamine H1 receptor (P35367 whole entry): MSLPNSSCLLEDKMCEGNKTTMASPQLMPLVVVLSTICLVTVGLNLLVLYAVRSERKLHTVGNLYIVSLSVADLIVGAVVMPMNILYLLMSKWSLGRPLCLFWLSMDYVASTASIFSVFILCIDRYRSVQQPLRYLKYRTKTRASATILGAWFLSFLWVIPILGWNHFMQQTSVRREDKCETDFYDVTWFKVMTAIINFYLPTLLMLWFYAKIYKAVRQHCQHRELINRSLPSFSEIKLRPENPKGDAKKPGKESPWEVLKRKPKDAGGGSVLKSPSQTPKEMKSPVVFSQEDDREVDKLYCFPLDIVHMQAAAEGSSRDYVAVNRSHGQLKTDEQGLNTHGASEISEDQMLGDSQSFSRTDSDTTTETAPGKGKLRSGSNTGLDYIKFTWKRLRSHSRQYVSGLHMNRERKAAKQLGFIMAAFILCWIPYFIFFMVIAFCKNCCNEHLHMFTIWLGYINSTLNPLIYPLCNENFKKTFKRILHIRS
row,SMILES,pKi
1,c1ccc(CCNCC2c3ccccc3Cc3ccccc32)cc1,6.62
2,c1ccc(CCCCNCC2c3ccccc3Cc3ccccc32)cc1,6.02
3,COc1ccc2c3c(ccc2c1)Cc1ccccc1C3CN (stereo not drawn),5.58
4,c1ccc(CCCNCC2c3ccccc3Cc3ccccc32)cc1,6.14

# Target: 5-hydroxytryptamine receptor 2A (Homo sapiens, UniProt P28223)
# Assay: Displacement of [3H]Ketanserin from human cloned 5HT2A receptor
# Chain of 5-hydroxytryptamine receptor 2A (P28223 whole entry): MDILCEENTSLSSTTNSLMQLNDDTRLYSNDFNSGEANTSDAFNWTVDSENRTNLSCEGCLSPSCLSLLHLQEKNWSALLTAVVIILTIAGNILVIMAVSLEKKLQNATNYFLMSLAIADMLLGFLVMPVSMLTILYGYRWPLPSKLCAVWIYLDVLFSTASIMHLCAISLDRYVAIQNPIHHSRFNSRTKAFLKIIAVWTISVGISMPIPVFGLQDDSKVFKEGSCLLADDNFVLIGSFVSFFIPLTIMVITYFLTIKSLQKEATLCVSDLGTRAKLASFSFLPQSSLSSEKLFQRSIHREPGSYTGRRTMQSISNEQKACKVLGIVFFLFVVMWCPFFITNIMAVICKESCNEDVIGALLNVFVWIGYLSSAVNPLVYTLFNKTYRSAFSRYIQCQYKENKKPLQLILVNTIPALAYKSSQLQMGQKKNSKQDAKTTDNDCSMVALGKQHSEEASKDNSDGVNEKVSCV
row,SMILES,pKi
1,c1ccc(CCNCC2c3ccccc3Cc3ccccc32)cc1,6.40
2,c1ccc(CCCCNCC2c3ccccc3Cc3ccccc32)cc1,6.44
3,COc1ccc2c3c(ccc2c1)Cc1ccccc1C3CN (stereo not drawn),7.68
4,c1ccc(CCCNCC2c3ccccc3Cc3ccccc32)cc1,6.65
